Experimental data reported in patent US20080096924A1, “Amorphous Composition” (ONO PHARMACEUTICAL CO., LTD., priority 2004, published 2008).
Values after ≈ are worked out from the molar mass of the structure shown.

Assays:
[1] = Bioavailability on oral administration; settings: in vivo, orally administered, read-out: bioavailability (BA)
[2] = Solubility in water; type: physicochemical; settings: crystals of compound (I) vs spray-dried amorphous powder with HPMCAS
[3] = target: N-type calcium channel (Homo sapiens, UniProt Q00975); settings: refer to Patent Document 1; cited from earlier work
[4] = target: CYP3A4 (Homo sapiens, UniProt P08684); experiment: Metabolism by metabolic enzyme
Chain of CYP3A4 (P08684 whole entry): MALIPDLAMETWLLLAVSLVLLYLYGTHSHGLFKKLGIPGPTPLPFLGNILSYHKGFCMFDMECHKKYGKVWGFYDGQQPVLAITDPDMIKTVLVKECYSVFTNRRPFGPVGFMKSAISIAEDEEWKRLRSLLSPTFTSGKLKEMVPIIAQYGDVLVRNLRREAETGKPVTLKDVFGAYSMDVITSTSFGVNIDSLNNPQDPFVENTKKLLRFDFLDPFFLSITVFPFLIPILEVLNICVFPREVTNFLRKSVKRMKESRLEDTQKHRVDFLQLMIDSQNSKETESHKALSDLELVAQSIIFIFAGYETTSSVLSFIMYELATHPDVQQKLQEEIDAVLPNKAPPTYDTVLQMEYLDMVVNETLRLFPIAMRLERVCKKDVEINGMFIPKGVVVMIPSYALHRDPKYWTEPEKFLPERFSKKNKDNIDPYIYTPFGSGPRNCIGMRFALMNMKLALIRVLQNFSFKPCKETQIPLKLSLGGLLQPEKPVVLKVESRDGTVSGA

Chain of N-type calcium channel (Q00975 whole entry): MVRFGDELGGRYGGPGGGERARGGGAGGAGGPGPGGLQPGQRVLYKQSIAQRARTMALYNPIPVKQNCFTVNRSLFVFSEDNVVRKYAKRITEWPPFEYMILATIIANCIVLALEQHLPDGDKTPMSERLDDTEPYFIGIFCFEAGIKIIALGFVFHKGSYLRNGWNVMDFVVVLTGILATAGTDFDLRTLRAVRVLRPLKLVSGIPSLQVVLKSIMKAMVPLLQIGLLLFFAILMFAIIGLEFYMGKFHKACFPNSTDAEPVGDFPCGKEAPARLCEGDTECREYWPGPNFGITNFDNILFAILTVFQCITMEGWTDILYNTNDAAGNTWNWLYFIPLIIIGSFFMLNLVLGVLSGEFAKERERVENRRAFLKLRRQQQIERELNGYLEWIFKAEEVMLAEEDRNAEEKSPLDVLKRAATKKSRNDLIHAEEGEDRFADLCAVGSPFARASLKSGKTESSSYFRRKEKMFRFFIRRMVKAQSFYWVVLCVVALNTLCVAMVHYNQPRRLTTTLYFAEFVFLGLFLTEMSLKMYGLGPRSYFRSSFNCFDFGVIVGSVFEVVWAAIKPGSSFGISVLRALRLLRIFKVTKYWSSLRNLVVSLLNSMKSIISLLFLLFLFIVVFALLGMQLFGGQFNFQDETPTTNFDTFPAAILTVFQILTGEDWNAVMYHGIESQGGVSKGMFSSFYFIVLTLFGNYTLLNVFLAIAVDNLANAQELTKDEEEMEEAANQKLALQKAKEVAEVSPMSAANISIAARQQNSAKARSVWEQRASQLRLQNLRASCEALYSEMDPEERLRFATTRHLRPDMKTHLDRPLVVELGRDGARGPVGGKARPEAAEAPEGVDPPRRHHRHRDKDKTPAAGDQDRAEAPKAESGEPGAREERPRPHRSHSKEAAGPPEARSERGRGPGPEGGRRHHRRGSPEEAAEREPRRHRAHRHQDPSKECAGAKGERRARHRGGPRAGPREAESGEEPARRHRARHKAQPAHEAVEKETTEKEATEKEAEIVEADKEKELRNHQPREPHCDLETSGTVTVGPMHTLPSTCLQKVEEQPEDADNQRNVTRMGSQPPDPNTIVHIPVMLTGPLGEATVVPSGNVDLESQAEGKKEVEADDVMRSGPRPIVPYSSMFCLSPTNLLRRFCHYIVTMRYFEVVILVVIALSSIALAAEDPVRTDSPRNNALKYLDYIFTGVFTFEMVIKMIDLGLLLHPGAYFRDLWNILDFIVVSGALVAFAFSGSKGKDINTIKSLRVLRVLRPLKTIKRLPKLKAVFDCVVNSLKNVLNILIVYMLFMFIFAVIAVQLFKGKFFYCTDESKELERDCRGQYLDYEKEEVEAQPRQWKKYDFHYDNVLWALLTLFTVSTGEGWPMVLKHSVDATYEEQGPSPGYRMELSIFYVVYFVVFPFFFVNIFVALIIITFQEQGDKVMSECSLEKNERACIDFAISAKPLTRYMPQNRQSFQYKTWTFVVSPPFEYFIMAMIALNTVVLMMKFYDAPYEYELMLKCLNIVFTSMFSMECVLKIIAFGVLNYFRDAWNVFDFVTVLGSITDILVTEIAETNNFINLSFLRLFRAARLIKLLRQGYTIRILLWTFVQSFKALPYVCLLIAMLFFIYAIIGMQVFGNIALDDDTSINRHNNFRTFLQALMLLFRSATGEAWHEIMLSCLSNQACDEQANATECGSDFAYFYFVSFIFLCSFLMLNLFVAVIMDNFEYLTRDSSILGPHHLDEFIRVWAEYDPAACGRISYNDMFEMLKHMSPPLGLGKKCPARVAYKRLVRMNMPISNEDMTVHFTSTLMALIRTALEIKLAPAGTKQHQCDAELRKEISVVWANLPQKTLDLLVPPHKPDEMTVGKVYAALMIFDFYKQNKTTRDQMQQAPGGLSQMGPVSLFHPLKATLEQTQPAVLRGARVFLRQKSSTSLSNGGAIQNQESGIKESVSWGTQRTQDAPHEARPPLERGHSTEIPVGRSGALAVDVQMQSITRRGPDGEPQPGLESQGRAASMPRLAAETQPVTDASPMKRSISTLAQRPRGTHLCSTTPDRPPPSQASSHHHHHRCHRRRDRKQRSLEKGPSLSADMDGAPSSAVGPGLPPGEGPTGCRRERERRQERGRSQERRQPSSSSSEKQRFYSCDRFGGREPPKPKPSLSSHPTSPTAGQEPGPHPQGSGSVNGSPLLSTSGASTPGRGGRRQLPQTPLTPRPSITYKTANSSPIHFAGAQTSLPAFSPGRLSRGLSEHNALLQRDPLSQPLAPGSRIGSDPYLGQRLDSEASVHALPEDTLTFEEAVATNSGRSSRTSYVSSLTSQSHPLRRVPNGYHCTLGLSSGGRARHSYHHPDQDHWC

CC(C)(C)OC(=O)N1CSC[C@H]1C(=O)N[C@@H](CSCC1CCCCC1)C(=O)NC1CCN(Cc2ccccc2)CC1 [compound (I), (2R)—N-(1-benzylpiperidin-4-yl)-3-cyclohexylmethylthio-2-[(4R)-3-tert-butoxycarbonylthiazolidin-4-ylcarbonylamino]propaneamide]
bioavailability [1]: ~0.2%
solubility [2]: ~1.25 µg/mL (≈ 2.07 µM)
N-type calcium channel inhibiting activity [3]: N-type calcium channel inhibiting activity
metabolic enzyme [4]: metabolized by CYP3A4
